Square brackets hold non-standard residues; d marks the D form. Primed or numbered codes have the meaning given here. Ends that are not written are not given here. Lys(N3) = [N-]=[N+]=NCCCC[C@H](N)C(=O)O; PEG4′ = not defined here
Experiments:
[1] = tested on: Primary Human Aortic Endothelial Cells (HAEC); test: Human aortic endothelial cells grown 48 h on bare or peptide-coated nitinol disks; F-actin / CD31 staining and image analysis; format: cell-based
Experimental: Nitinol disks are left untouched (bare metal) or coated with a domain 1, domain 2 or domain 1 and 2 CD31 analog peptide. The tested peptide is grafted to the nitinol disk following a polydopamine, DBCO-PEG4-amine and azide CD31 derivative peptide using a sequential dip-coating layering procedure. After this step, all the disks are incubated with Human aortic endothelial cells for 48 h. Disks are then rinsed and the cells are fixed in a formalin solution before staining. The staining is fulfilled using phalloidin coupled to AlexaFluor®488 dye (green fluorescence for Actin), DAPI is used for DNA staining and a domain 1 CD31 antibody coupled to APC is used for external Domain 1 staining. The cell adhesion and Actin/CD31 expression was evaluated by image analysis of the surface after staining.
In particular, as per FIG. 2 the bare or coated nitinol disks were placed at the bottom of culture wells. Primary Human Aortic Endothelial Cells (HAEC) were allowed to grow on the disks for a period of 48 h. The disks were thereafter rinsed with phosphate buffered saline, fixed in formalin, and processed for fluorescence microscopy. Disk-adherent cells were immersed in a solution comprising Hoechst 33342 (1 μg/ml, to stain the nuclei), phalloidin coupled to AlexaFluor®488 dye (0.5 μM, to stain F-actin fibers) and a monoclonal antibody directed against CD31 domain 1, coupled to allophycocyanin (to detect the presence and localization of intact CD31 at the cell surface) for 1 hour at 37° C., washed and mounted face down on glass bottom imaging chambers for imaging with an inverted fluorescence microscope.
Surface type is indicated on the Y axis, data are expressed as average±SD (N=6/surface type). Each dot corresponds to a specific surface modification. The F-actin expression relates the cellular stress of the cell in presence of the exogenous material.
In FIG. 4 the surface type is indicated on the Y axis. Each dot corresponds to a specific surface modification. Data are expressed as “Integrated Density” average±SD (N=6/surface type). CD31 expression relates the capacity of endothelial cells to adopt a physiologic phenotype while growing on a given substrate. An important variability is observed in terms of CD31 expression by HAEC according to the surface modification of the nitinol disks.
The “mirror” bars of FIG. 5 report the average Integrated Density of F-actin (left) and of CD31 (right) staining for each of the indicated (Y axis) type of peptide coated onto the disk surface and bare disks. Data are sorted (from the top to the bottom) according to the increase in the cellular stress (actin expression) of each coating. As shown on the figure, the degree of cellular stress (as detected by a high actin expression) and impaired endothelial phenotype (documented by a low CD31 expression) is evident on HAEC grown onto bare metal disks.
The data shown in FIG. 6 are expressed as the ratio between CD31 and F-actin expression.
The effect of different peptides, belonging to the different groups, were tested in batches following the same protocol as in FIG. 6. Different peptides from each group were tested in batches and the effect of individual peptides was repeatedly assessed in separate experiments. Data from all experiments were obtained by computer-assisted analysis of images of the disk side covered with endothelial cells, captured in the blue, green and red channel of an inverted fluorescence microscope. The functional score of the peptides belonging to the different groups was calculated by multiplying the number of cells (as detected by the number of blue, Dapi+ nuclei) for the integrated density of CD31 expression (red signal provided by the binding of a mouse anti-human CD31 monoclonal antibody, clone 9G11, conjugated allophycocyanin) and their product being divided for the integrated density of the F-actin polymerization (Phalloidin coupled to a green fluorochrome). […]

[2] = tested on: aneurysm-carrying artery and abdominal aorta; test: Flow-diverter stents (CFD) implanted in rabbit aneurysm-carrying artery and abdominal aorta; SEM and histopathology (Example 3); format: in vivo, New Zealand White rabbits
Experimental: Flow-diverter stents (CFD) are braided meshes made of nitinol, from Sinomed. They are coated by one of the following coatings: • 1. SP1072 peptide according to the invention, or • 2. Hydrophilic polymer eG NTMA (obtained from the electrografting of N-[Tris (hydroxymethyl) Methyl]Acrylamide).
• 1) Transfer each stent in a 5 mL polypropylene round bottom tube (Bd Falcon Ref 352063). Insure the stent drops at the bottom of the tube. • 2) Add 4.5 mL of a 2 mg/mL PDA solution per tube. Homogenize each tube on a rotary wheel (approx. 20 rpm) overnight (18+/−2 h) at room temperature and protect from light. […] The stent color should change from silver to brown/black. After the incubation period the solution will become black with small PDA aggregates • 3) Transfer each stent in a new tube and rinse 3-times with demineralized water. homogenize on the rotary wheel 5 min at each rinse. • 4) Leave the last rinse and sonicate the tube for at least 30 s to discard any remaining PDA chunk. • 5) Transfer each stent in a 2 mL—Eppendorf tube containing 1.8 mL of DBCO (300 μM) per tube. Homogenize each tube on a rotary wheel (approx. 20 rpm) overnight at room temperature and protect from light. • 6) Transfer each stent in a new tube and rinse 3-times with demineralized water. Homogenize on the rotary well 5 min at each rinse. • 7) Transfer each stent in a 2 mL—Eppendorf tube containing 1.8 mL of CD31 peptide (50 μg/mL) per tube. Homogenize each tube on a rotary wheel (approx. 20 rpm) for 2 hours at room temperature and protect from light. • 8) Transfer each stent in a new tube and rinse 3-times with demineralized water. Homogenize on the rotary well 5 min at each rinse. • 9) Soak each stent in absolute Ethanol for 5 seconds before letting them dry.
Comparative hydrophilic polymer eG NTMA-coated flow diverter stents were obtained via the following protocol: • (1) Cleaning pretreatment: The stent frames were sonicated in acetone, ethanol, and water for injection for 10 min, respectively. • (2) Electro-grafting solution preparation: N-[tris(hydroxymethyl)methyl]acrylamide, concentration 0.30 M; NaNO3, concentration 0.05 M; 4-nitrophenyl tetrafluoroborate diazonium salt, 0.005 M; the remaining amount is DMSO solvent. • (3) Electro-grafting process: the pretreated stents were used as the working electrode, and a platinum foil was used as the counter electrode, which was submerged in the electro-grafting solution, and a linear sweep voltage between −0.1 and −3.0 V and back was applied between the two electrodes with a voltage scan rate of 0.05 V/s for 10 cycles. • (4) Coating smoothing and drying: the electrografted scaffold was smoothed in acetone (2 L) with nitrogen bubbling (rate 0.5-10 L/min) for 10 min and placed in a vacuum drying oven at 40° C. for 2 h.
A total of 8 healthy New Zealand White rabbits (including 2 spare animals), male and female, weighing about 3 kg, were included in this study. A total of 3 observation time points of 7 days, 30 days and 60 days postoperatively were set. The experiment was divided into two steps: 1) aneurysm animal modeling; 2) implantation of a dense mesh stent in the aneurysm-carrying artery and abdominal aorta for each animal. The stent implantation in the aneurysm-carrying artery was to be used to examine the safety and effectiveness of the stent in treating aneurysms, and the stent implantation in the abdominal aorta, covering a pair of lumbar arteries, was to be used to examine the safety of the tested stent.
Step 1) (aneurysm animal modeling) was performed as follows: • (a) The rabbit is placed supine on the operating table and the neck is shaved. […] Every 20 minutes, saline drips were injected into the rabbit's cervical vessels and vagus nerve to keep them moistened. […] Continue to use antibiotics for 3-5 days after surgery. […]

[3] = tested on: aneurysm-carrying artery and abdominal aorta; test: Flow-diverter stents (CFD) in rabbits without aspirin or clopidogrel after implantation (Example 4); format: in vivo, New Zealand White rabbits; conditions: day 7, n=3, no aspirin nor clopidogrel after implantation; preliminary
Description: The same materials and protocol as in Example 3 were used, except that: • Only 3 animals were used for each condition, and • No aspirin nor clopidogrel was given to animals after the implantation.

[4] = day 7, aneurysm-carrying artery
[5] = day 60, aneurysm-carrying artery

YKSTVIVNNKEKTTAE-PEG4-K(N3)-CONH2 (YKSTVIVNNKEKTTAE[PEG4′][Lys(N3)]-NH2) [SP1072]
CD31/Actin score ([1]; Example 2, FIG. 25, repeated experiments (SP547, SP548 only one measure)): significantly higher than those obtained by the bare metal disks or by disks coated with PDA alone
CD31 expression (physiologic endothelial phenotype), Integrated Density ([1]; HAEC 48 h on coated nitinol disks, compared to other modified disks and bare controls, FIGS. 2, 4, 5): evident positive effect in terms of CD31 expression
ratio between CD31 and F-actin expression ([1]; compared to bare metal and disks coated with PDA only, FIG. 6): higher CD31/actin ratio
endothelialization of inner surface of flow-diverter stents (conclusion) ([2]; Example 3 overall): promotes early endothelialization on the inner surface of the flow-diverter stents
endothelialization of the device at sites other than the aneurysm entry (conclusion) ([2]; Example 3 overall): endothelialization of the device is fast and complete without apparent inflammation nor neointima
neo arterial wall at the entry of the aneurysm sac (conclusion) ([2]; Example 3 overall): promotes the growth of an organized, blood-impermeable neo arterial wall at the entry of the aneurysm sac
neo-wall covering the aneurysmal neck (histopathology) [2, 4]: compact and rich in extracellular matrix (dark grey) and void of inflammation (no black nuclei) or thrombosis
organization of thrombus in the aneurysmal sac (histopathology) [2, 4]: organized
organization of thrombus in the aneurysmal sac (histopathology) [2, 5]: very well organized
reaction of arterial wall in contact with stent struts (histopathology) [2, 5]: absence of inflammation/thrombosis of the arterial wall that is already in contact with the stent struts
survival and thrombus after implantation [3]: still alive with no thrombus
